Results reported in paper PMC10906223 (JCI Insight, 2024).
Several values for one entry are separate records, joined by “and”; a condition that tells them apart may be missing. Equal entries are not always repeated. Entries after “also recorded” stand apart in the source; their conditions may differ.

Key:
EphA4 receptor = target: T1, EphA4 receptor (Mus musculus, UniProt Q03137); test: ELISA: competition between WCDD301 and Ephrin-A5 Fc for binding to EphA4; conditions: for Bound Ephrin (WCDD301, 0.01 µM) / Bound Ephrin (WCDD301, 0.1 µM) / Bound Ephrin (WCDD301, 1 µM): Figure 1E; for Bound Ephrin-A5 (ELISA signal) / AUC of competition curve: Figure 1D; for AUC of competition curve: EphA4 3 μg/mL, mean ± SD
T1 construct: purchased R&D Systems 641-A4-200
Protocol: Wells of the protein A–coated microplate (Pierce, catalog 15132) were washed using 200 μL of binding buffer (PBS supplemented by 0.01% Tween 20). Recombinant mouse EphA4 Fc chimera protein (R&D Systems, catalog 641-A4-200) was reconstituted in 1× PBS (Genesee, catalog 25-507XB, pH 7.2 ± 0.1), diluted to 3 μg/mL using binding buffer, dispensed (100 μL) in each well, and rocked on a belly dancer shaker (3 hours at room temperature, RT). Following 3 washes in the binding buffer, blocking was done using blocking buffer (5% BSA in binding buffer) for 3 hours at RT. Then, after 5 washes, the reconstituted recombinant mouse Ephrin-A5 Fc (R&D Systems, catalog 7396-EA-050) was added (100 μL) into each well and rocked for 2.5 hours on the shaker (Ephrin-A5 Fc concentrations were used as described in the Results section). After 7 washes using binding buffer, alkaline phosphatase–conjugated antibody against Ephrin-A5 was diluted (1:1,000) in the binding buffer plus 2% BSA, added to each well, and incubated at 4°C, overnight. Conjugation of the anti-EFNA5 antibody (Abnova, catalog H00001946-M02; 0.5 mg/mL; target sequence 114–203) was done using Abcam conjugation kit (catalog ab102850) based on the manufacturer’s instruction. After washing 7 times, p-nitrophenyl phosphate tablet (MilliporeSigma, catalog N1891) was reconstituted in 5 mL of PBS and added to each well (100 μL). Following 1 hour shaking at RT in the dark, reaction was stopped by adding 100 μL of 3N NaOH. OD was read at 405 nm within 5 minutes using the microplate reader (Agilent BioTek Cytation 5).
We took following the approaches to assay competition between Ephrin-A5 and WCDD301 for binding to the EphA4 receptor. Wells of the microplate were coated by a fixed level of EphA4 Fc (3.5 pmol/well), and competition experiments with Ephrin-A5 and WCDD301 were performed as listed in Supplemental Tables 3 and 4. We determined the KD value for each condition by means of Michaelis-Menten best fit analysis in GraphPad Prism software version 4. To control for potential interaction between WCDD301 and Ephrin-A5 Fc, we coated wells of a microplate using Ephrin-A5 Fc and then incubated them with or without WCDD301 (0.2 μM).

diabetic NOD mice = test: Blood glucose in diabetic NOD mice, once-daily oral WCDD301 in SAIB-Agar; format: in vivo, mouse; design: Blood glucose: unit: mg/dL; conditions: for Blood glucose: oral 7.5 mg/kg once daily, per mouse, Figure 6A, 7.5 mg/kg
Protocol: For the polygenic model for T1D (the Jackson Laboratory), 10 cohorts of independent NOD/shiLTJ mice (each 10, equal numbers of females and males) were purchased at 7–9 weeks old. Blood glucose levels were monitored twice a week using a glucometer (Glucocard Vital) to find those mice at risk of diabetes. Diabetes was confirmed when the blood glucose levels remained at 200–250 mg/dL for 3 consecutive days. This profile of the blood glucose level is referred to as moderate hyperglycemia.
We prepared sustained time-release pearls for oral administration in the mouse models. To this end, we combined FDA-approved excipients of Eastman BioSustane SAIB NF (product code: 41271-00, sample distribution from Eastman Company, Kingsport, Tennessee, USA; provided by Phillip Cook) and Agar (Lamda Biotech, catalog C110) at the ratio of 1:1.45 (w/w). We also prepared another type of sustained time-release pearl by mixing SAIB, Agar, and L (-) malic acid (MilliporeSigma, catalog 202-601-5) at the ratio of 1:1.4:0.2 (w/w/w). A homogenous paste mixture was prepared, and pearls were formed with 50–60 mg weight and approximately 2 mm diameter by pinching off the mixture and manually rolling.
We preweighed WCDD301 into microfuge tubes and reconstituted it using deionized water. Using a 10 μL pipette tip, we placed the calculated dose of WCDD301 (at the volume range of 1–1.5 μL) within the center of pearls. WCDD301 was placed into pearls 30–45 minutes before administration. For oral administration of pearls, we designed an applicator using a disposable plastic transfer pipette and syringe plunger lubricated with olive oil. Food intake and body weight in each experimental group (diabetic WCDD301-treated, diabetic placebo-treated, and nondiabetic placebo-treated NOD mice) were monitored daily for 4 weeks. Urine glucose was measured from individually caged NOD mice (nondiabetic placebo treated n = 2, diabetic placebo treated n = 2, and diabetic WCDD301 treated n = 4, 21–23 weeks old) with metabolic cages. Urine glucose was monitored every 24 hours for 10 days by semiquantitative measurements (P-STICKS, Millpledge Veterinary).
We applied the following therapeutic regimens in the fed state for oral dosing of pearls containing WCDD301. The therapeutic regimen for diabetic NOD mice with moderate hyperglycemia (n = 6–9; 6 females/3 males) or nondiabetic ones with blood glucose levels of < 140 mg/dL (females, n = 5) was dose 7.5 mg/kg, dosage once a day, and excipient SAIB-Agar, 50–60 mg. The therapeutic regimen for STZ-induced diabetic mice with early severe hyperglycemia (n = 3, placebo group; n = 4 treatment group, females) was dose 10 mg/kg, dosage once a day, and excipient SAIB-Agar-malic acid, 50–60 mg.

T1 sequence (Q03137 with tags, fused parts or gaps limits assumed): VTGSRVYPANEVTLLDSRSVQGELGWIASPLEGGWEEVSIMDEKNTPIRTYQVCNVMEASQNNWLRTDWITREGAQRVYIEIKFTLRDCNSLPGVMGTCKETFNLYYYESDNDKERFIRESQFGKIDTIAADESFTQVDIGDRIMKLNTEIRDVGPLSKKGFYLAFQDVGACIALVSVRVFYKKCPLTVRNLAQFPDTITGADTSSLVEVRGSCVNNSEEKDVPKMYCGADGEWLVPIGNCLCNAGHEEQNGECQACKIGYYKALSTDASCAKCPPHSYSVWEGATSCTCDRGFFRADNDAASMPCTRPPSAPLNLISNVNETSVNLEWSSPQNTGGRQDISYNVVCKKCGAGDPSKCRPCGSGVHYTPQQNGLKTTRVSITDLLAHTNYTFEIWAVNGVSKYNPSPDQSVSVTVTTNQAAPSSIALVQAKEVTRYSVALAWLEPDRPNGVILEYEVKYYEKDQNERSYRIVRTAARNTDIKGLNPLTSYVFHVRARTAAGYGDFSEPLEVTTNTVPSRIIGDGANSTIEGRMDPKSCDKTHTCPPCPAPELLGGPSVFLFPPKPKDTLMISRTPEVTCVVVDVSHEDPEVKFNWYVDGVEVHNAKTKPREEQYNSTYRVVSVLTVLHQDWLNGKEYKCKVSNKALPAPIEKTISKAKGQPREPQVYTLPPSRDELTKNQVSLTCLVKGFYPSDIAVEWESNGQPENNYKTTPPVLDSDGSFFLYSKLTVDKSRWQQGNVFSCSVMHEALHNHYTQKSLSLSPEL

## CC(=O)OCC(N)(COC(C)=O)COC(C)=O [WCDD301, 2-(acetoxymethyl)-2-aminopropane-1,3-diyl diacetate]
EphA4 receptor; AUC analysis
  Competition with Ephrin-A5 for EphA4: competes with the natural ligand, Ephrin-A5
EphA4 receptor; Ephrin-A5 Fc 2 nM
  Bound Ephrin (WCDD301, 0.01 µM): 0.051 and 0.05 and 0.052
  Bound Ephrin (WCDD301, 0.1 µM): 0.05 and 0.06
  Bound Ephrin (WCDD301, 1 µM): 0.03 and 0.04
EphA4 receptor; Ephrin-A5 Fc 4 nM
  Bound Ephrin (WCDD301, 0.01 µM): 0.061 and 0.07 and 0.064
  Bound Ephrin (WCDD301, 0.1 µM): 0.062 and 0.064 and 0.07
  Bound Ephrin (WCDD301, 1 µM): 0.04 and 0.05
EphA4 receptor; Ephrin-A5 Fc 8 nM
  Bound Ephrin (WCDD301, 0.01 µM): 0.142 and 0.122 and 0.156
  Bound Ephrin (WCDD301, 0.1 µM): 0.119 and 0.121 and 0.098
  Bound Ephrin (WCDD301, 1 µM): 0.1 and 0.104 and 0.11
EphA4 receptor; Ephrin-A5 Fc 16 nM
  Bound Ephrin (WCDD301, 0.01 µM): 0.18 and 0.189 and 0.209
  Bound Ephrin (WCDD301, 0.1 µM): 0.141 and 0.137 and 0.119
  Bound Ephrin (WCDD301, 1 µM): 0.145 and 0.115 and 0.125
EphA4 receptor; Ephrin-A5 Fc 32 nM
  Bound Ephrin (WCDD301, 0.01 µM): 0.265 and 0.289 and 0.221
  Bound Ephrin (WCDD301, 0.1 µM): 0.21 and 0.269 and 0.243
  Bound Ephrin (WCDD301, 1 µM): 0.234 and 0.189 and 0.171
EphA4 receptor; Ephrin-A5 Fc 64 nM
  Bound Ephrin (WCDD301, 0.01 µM): 0.321 and 0.34 and 0.365
  Bound Ephrin (WCDD301, 0.1 µM): 0.301 and 0.29 and 0.27
  Bound Ephrin (WCDD301, 1 µM): 0.28 and 0.27 and 0.26
EphA4 receptor; WCDD301 0.0625 µM, Ephrin-A5 (2 nM)
  Bound Ephrin-A5 (ELISA signal): 0.1 and 0.12
EphA4 receptor; WCDD301 0.0625 µM, Ephrin-A5 (4 nM), c4-c6
  Bound Ephrin-A5 (ELISA signal): 0.217 and 0.196 and 0.19
EphA4 receptor; WCDD301 0.0625 µM, Ephrin-A5 (4 nM), third group c7-c9
  Bound Ephrin-A5 (ELISA signal): 0.23 and 0.236 and 0.246
EphA4 receptor; WCDD301 0.0625 µM, Ephrin-A5 (8 nM)
  Bound Ephrin-A5 (ELISA signal): 0.237 and 0.247 and 0.265
EphA4 receptor; WCDD301 0.125 µM, Ephrin-A5 (2 nM)
  Bound Ephrin-A5 (ELISA signal): 0.086 and 0.108 and 0.1
EphA4 receptor; WCDD301 0.125 µM, Ephrin-A5 (4 nM), c4-c6
  Bound Ephrin-A5 (ELISA signal): 0.202 and 0.18 and 0.187
EphA4 receptor; WCDD301 0.125 µM, Ephrin-A5 (4 nM), third group c7-c9
  Bound Ephrin-A5 (ELISA signal): 0.208 and 0.216
EphA4 receptor; WCDD301 0.125 µM, Ephrin-A5 (8 nM)
  Bound Ephrin-A5 (ELISA signal): 0.236 and 0.233 and 0.234
EphA4 receptor; WCDD301 0.25 µM, Ephrin-A5 (2 nM)
  Bound Ephrin-A5 (ELISA signal): 0.072 and 0.073 and 0.082
EphA4 receptor; WCDD301 0.25 µM, Ephrin-A5 (4 nM), c4-c6
  Bound Ephrin-A5 (ELISA signal): 0.148 and 0.141 and 0.169
EphA4 receptor; WCDD301 0.25 µM, Ephrin-A5 (4 nM), third group c7-c9
  Bound Ephrin-A5 (ELISA signal): 0.201 and 0.205 and 0.203
EphA4 receptor; WCDD301 0.25 µM, Ephrin-A5 (8 nM)
  Bound Ephrin-A5 (ELISA signal): 0.222 and 0.22 and 0.212
EphA4 receptor; at 2 nM
  AUC of competition curve: 0.025 ± 0.0011 AU
EphA4 receptor; at 4 nM
  AUC of competition curve: 0.0469 ± 0.0014 AU
EphA4 receptor; at 6 nM
  AUC of competition curve: 0.0554 ± 0.0006 AU
EphA4 receptor; at 8 nM
  AUC of competition curve: 0.0617 ± 0.0011 AU
Diabetic NOD mice; 48h later (after stopping dosing)
  Blood glucose (Supplemental Figure 6A): 350 mg/dL and 370 mg/dL and 330 mg/dL
Diabetic NOD mice; A week after resuming dosing
  Blood glucose (Supplemental Figure 6A): 119 mg/dL and 124 mg/dL and 131 mg/dL
Diabetic NOD mice; Stoping dosing
  Blood glucose (Supplemental Figure 6A): 119 mg/dL and 109 mg/dL and 124 mg/dL
Diabetic NOD mice; Week 1
  Blood glucose (Supplemental Figure 6A): 184 mg/dL and 200 mg/dL and 210 mg/dL
Diabetic NOD mice; Week 2
  Blood glucose (Supplemental Figure 6A): 122 mg/dL and 116 mg/dL and 109 mg/dL
Diabetic NOD mice; Week 3
  Blood glucose (Supplemental Figure 6A): 132 mg/dL and 147 mg/dL and 115 mg/dL
Diabetic NOD mice; diabetic NOD mice, moderate hyperglycemia (200–250 mg/dL), once-daily oral, SAIB-Agar
  Effect on blood glucose: significantly reduced blood glucose levels within a week of administration; also recorded: normalized blood glucose level during an 11-week follow-up
Diabetic NOD mice; diabetic NOD mice, SAIB-Agar formulation
  Time to normalized blood glucose: ≤ 2 weeks
Diabetic NOD mice; diabetic NOD mice, Week 1, before treatment 230-251, mg/dL
  Blood glucose: 165 and 170 and 163 and 184 and 200 and 210 and 198 and 180 and 175
Diabetic NOD mice; diabetic NOD mice, Week 2
  Blood glucose: 114 and 125 and 128 and 122 and 116 and 109 and 115
Diabetic NOD mice; diabetic NOD mice, Week 3
  Blood glucose: 120 and 115 and 116 and 132 and 147 and 109 and 110
Diabetic NOD mice; diabetic NOD mice, Week 4
  Blood glucose: 119 and 124 and 108 and 112 and 115 and 110
Diabetic NOD mice; diabetic NOD mice, Week 5
  Blood glucose: 109 and 105 and 115 and 118 and 117
Diabetic NOD mice; diabetic NOD mice, Week 6
  Blood glucose: 105 and 107 and 104 and 120 and 112 and 118
Diabetic NOD mice; diabetic NOD mice, Week 7
  Blood glucose: 109 and 105 and 106 and 110 and 118 and 116
Diabetic NOD mice; diabetic NOD mice, Week 8
  Blood glucose: 109 and 107 and 110 and 118 and 116
Diabetic NOD mice; diabetic NOD mice, Week 9
  Blood glucose: 114 and 109 and 120 and 105 and 118 and 98
Diabetic NOD mice; diabetic NOD mice, Week 10
  Blood glucose: 119 and 114 and 117 and 102 and 105 and 108
Diabetic NOD mice; diabetic NOD mice, Week 11
  Blood glucose: 109 and 112 and 116 and 114 and 108 and 110
Diabetic NOD mice; treated diabetic NOD mice, Supplemental Figure 6A
  Blood glucose after discontinuing for 48 hours and resuming dosing: resulted in hyperglycemia; also recorded: Euglycemia returned after resuming the WCDD301 dosing
